The assay concerns HT-29 cells. Description: In vitro assay for protection of HT-29 cells from necroptosis (TNFα/Smac mimetic/Z-VAD-FMK induction, CCK8 readout). The note with it: TNFα/Smac mimetic/Z-VAD-FMK for 24 h; inhibition of necroptosis; read-out: HT-29 (EC50). Format: cell-based.

Each structure is given as a SMILES string. Bounds are passed on as bounds.

On to `CC(C(=O)Nc1nc2cc(-c3ccc4c(c3)c(C(=O)N[C@@H](C)c3ccc(F)cc3)cn4C)ccn2n1)N1CC[C@H](O)C1` (stereo partly shown) [Compound 1], for which the EC50 was 10 to 100 nM.
Turning to `C[C@H](NC(=O)c1cn(C)c2ccc(-c3ccn4nc(NC(=O)CN5C[C@H](O)CC5=O)nc4c3)cc12)c1ccc(F)cc1` [Compound 4], the EC50 fell in the range of 10 to 100 nM.
With `C[C@H](NC(=O)c1cn(C)c2ccc(-c3ccn4nc(NC(=O)CN5CCC(O)(O)CC5)nc4c3)cc12)c1ccc(F)cc1` [Compound 5], the concentration for a half-maximal effect (EC50) was less than 1 nM.
Regarding `C[C@H](NC(=O)c1cn(C)c2ccc(-c3ccn4nc(NC(=O)CN5CCC[C@H](O)C5)nc4c3)cc12)c1ccc(F)cc1` [Compound 7], the EC50 was less than 1 nM.
As for `CCOC(=O)C(=O)Nc1nc2cc(-c3ccc4c(c3)c(C(=O)N[C@@H](C)c3ccc(F)cc3)cn4C)ccn2n1` [Compound 10], the EC50 lay within 1 to 10 nM.
For the compound `C[C@H](NC(=O)c1cn(C)c2ccc(-c3ccn4nc(NC(=O)C(N)=O)nc4c3)cc12)c1ccc(F)cc1` [Compound 11], the EC50 lay within 1 to 10 nM.
For `C[C@H](NC(=O)c1cn(C)c2ccc(-c3ccn4nc(NC(=O)CN5CC[C@@H](O)C5)nc4c3)cc12)c1ccc(F)cc1` [Compound 12], the EC50 was less than 1 nM.
Under `C[C@H](NC(=O)c1cn(C)c2ccc(-c3ccn4nc(NC(=O)CC5CCCCC5)nc4c3)cc12)c1ccc(F)cc1` [Compound 13] stands less than 1 nM; under `C[C@H](NC(=O)c1cn(C)c2ccc(-c3ccn4nc(NC(=O)CN5CCOCC5=O)nc4c3)cc12)c1ccc(F)cc1` [Compound 16], 10 to 100 nM; under `CCOC(=O)Nc1nc2cc(-c3ccc4c(c3)c(C(=O)N[C@@H](C)c3ccc(F)cc3)cn4C)ccn2n1` [Compound 17], less than 1 nM.
In the case of `COC1CCN(CC(=O)Nc2nc3cc(-c4ccc5c(c4)c(C(=O)N[C@@H](C)c4ccc(F)cc4)cn5C)ccn3n2)C1` (stereo partly shown) [Compound 19], the EC50 is less than 1 nM.
`C[C@H](NC(=O)c1cn(C)c2ccc(-c3ccn4nc(NC(=O)CN5CC[C@@H](F)C5)nc4c3)cc12)c1ccc(F)cc1` [Compound 20]: the EC50 was less than 1 nM.
Under `C[C@H](NC(=O)c1cn(C)c2ccc(-c3ccn4nc(NC(=O)CN5CC[C@H](F)C5)nc4c3)cc12)c1ccc(F)cc1` [Compound 21] stands less than 1 nM.
For `C[C@H](NC(=O)c1cn(C)c2ccc(-c3ccn4nc(NC(=O)CN5CCC(C#N)CC5)nc4c3)cc12)c1ccc(F)cc1` [Compound 23], the EC50 was less than 1 nM.
Take `COC1CCN(CC(=O)Nc2nc3cc(-c4ccc5c(c4)c(C(=O)N[C@@H](C)c4ccc(F)cc4)cn5C)ccn3n2)CC1` [Compound 24]: the EC50 was less than 1 nM.
Take `COCCOCCOCC(=O)Nc1nc2cc(-c3ccc4c(c3)c(C(=O)N[C@@H](C)c3ccc(F)cc3)cn4C)ccn2n1` [Compound 25]: the EC50 is less than 1 nM.
As to `COCCOCCOCCOCC(=O)Nc1nc2cc(-c3ccc4c(c3)c(C(=O)N[C@@H](C)c3ccc(F)cc3)cn4C)ccn2n1` [Compound 26], the EC50 is less than 1 nM.
As for `C[C@H](NC(=O)c1cn(C)c2ccc(-c3ccn4nc(NC(=O)CN5CCS(=O)(=O)CC5)nc4c3)cc12)c1ccc(F)cc1` [Compound 28], the EC50 was 1 to 10 nM.
Take `C[C@H](NC(=O)c1cn(C)c2ccc(-c3ccn4nc(NC(=O)CN5CCCOCC5)nc4c3)cc12)c1ccc(F)cc1` [Compound 30]: the EC50 is less than 1 nM.
For `C[C@H](NC(=O)c1cn(C)c2ccc(-c3ccn4nc(NC(=O)C5(C(=O)O)CC5)nc4c3)cc12)c1ccc(F)cc1` [Compound 31], the EC50 fell in the range of 10 to 100 nM.
With `C[C@H](NC(=O)c1cn(C)c2ccc(-c3ccn4nc(NC(=O)CN5CCOCC5C(=O)O)nc4c3)cc12)c1ccc(F)cc1` (stereo partly shown) [Compound 33], the EC50 lay in the range of 1000 to 10000 nM.
Under `C[C@H](NC(=O)c1cn(C)c2ccc(-c3ccn4nc(NC(=O)CN5CC(C#N)C5)nc4c3)cc12)c1ccc(F)cc1` [Compound 34] stands less than 1 nM.
Consider `C[C@H](NC(=O)c1cn(C)c2ccc(-c3ccn4nc(NC(=O)CN5CCOC[C@@H]5CO)nc4c3)cc12)c1ccc(F)cc1` [Compound 35], for which the EC50 is less than 1 nM.
As to `CCN(CC)CC(=O)Nc1nc2cc(-c3ccc4c(c3)c(C(=O)N[C@@H](C)c3ccc(F)cc3)cn4C)ccn2n1` [Compound 36], the EC50 is less than 1 nM.
For the compound `C[C@H](NC(=O)c1cn(C)c2ccc(-c3ccn4nc(NC(=O)CN5CCC[C@H]5C(=O)O)nc4c3)cc12)c1ccc(F)cc1` [Compound 37], the EC50 lay within 1 to 10 nM.
Regarding `C[C@H](NC(=O)c1cn(C)c2ccc(-c3ccn4nc(NC(=O)CN5CC[C@H](O)C5)nc4c3)cc12)c1ccc(F)cc1` [Compound 41], the EC50 is less than 1 nM.
Consider `C[C@H](NC(=O)c1cn(C)c2ccc(-c3ccn4nc(NC(=O)CN5CCCC(CO)C5)nc4c3)cc12)c1ccc(F)cc1` (stereo partly shown) [Compound 44], for which the EC50 is 1 to 10 nM.
Under `CC1CN(CC(=O)Nc2nc3cc(-c4ccc5c(c4)c(C(=O)N[C@@H](C)c4ccc(F)cc4)cn5C)ccn3n2)CCO1` (stereo partly shown) [Compound 45] stands less than 1 nM; under `C[C@H](NC(=O)c1cn(C)c2ccc(-c3ccn4nc(NC(=O)CN5CCC(F)(F)CC5)nc4c3)cc12)c1ccc(F)cc1` [Compound 47], less than 1 nM.
Consider `C[C@H](NC(=O)c1cn(C)c2ccc(-c3ccn4nc(NC(=O)Cn5ccnc5)nc4c3)cc12)c1ccc(F)cc1` [Compound 48], for which the EC50 was in the range of 10 to 100 nM.
On to `C[C@H](NC(=O)c1cn(C)c2ccc(-c3ccn4nc(NC(=O)CN5CCC[C@@H](O)C5)nc4c3)cc12)c1ccc(F)cc1` [Compound 49], for which the EC50 was in the range of 1 to 10 nM.
`C[C@H](NC(=O)c1cn(C)c2ccc(-c3ccn4nc(NC(=O)CN5CCN(C(=O)C6CC6)CC5)nc4c3)cc12)c1ccc(F)cc1` [Compound 50]: the EC50 is less than 1 nM.
Regarding `C[C@H](NC(=O)c1cn(C)c2ccc(-c3ccn4nc(NC(=O)Cn5ccnn5)nc4c3)cc12)c1ccc(F)cc1` [Compound 52], the EC50 was less than 1 nM.
With `CC(=O)N1CCN(CC(=O)Nc2nc3cc(-c4ccc5c(c4)c(C(=O)N[C@@H](C)c4ccc(F)cc4)cn5C)ccn3n2)CC1` [Compound 53], the EC50 is less than 1 nM.
With `C[C@H](NC(=O)c1cn(C)c2ccc(-c3ccn4nc(NC(=O)Cn5cncn5)nc4c3)cc12)c1ccc(F)cc1` [Compound 57], the EC50 was in the range of 10 to 100 nM.
As to `C[C@H](NC(=O)c1cn(C)c2ccc(-c3ccn4nc(NC(=O)Cn5cccn5)nc4c3)cc12)c1ccc(F)cc1` [Compound 58], the EC50 was less than 1 nM.
For the compound `C[C@H](NC(=O)c1cn(C)c2ccc(-c3ccn4nc(NC(=O)CN5CC[C@H](CO)C5)nc4c3)cc12)c1ccc(F)cc1` [Compound 61], the EC50 is 1 to 10 nM.
For the compound `C[C@H](NC(=O)c1cn(C)c2ccc(-c3ccn4nc(NC(=O)CN5CC[C@@H](CO)C5)nc4c3)cc12)c1ccc(F)cc1` [Compound 62], the EC50 was less than 1 nM.
Under `C[C@H](NC(=O)c1cn(C)c2ccc(-c3ccn4nc(NC(=O)CC(=O)O)nc4c3)cc12)c1ccc(F)cc1` [Compound 63] stands 1000 to 10000 nM; under `C[C@H](NC(=O)c1cn(C)c2ccc(-c3ccn4nc(NC(=O)CN5CCN(C(=O)OC(C)(C)C)C[C@H]5C)nc4c3)cc12)c1ccc(F)cc1` [Compound 64], less than 1 nM.
Take `C[C@H](NC(=O)c1cn(C)c2ccc(-c3ccn4nc(NC(=O)CNCCOCCO)nc4c3)cc12)c1ccc(F)cc1` [Compound 65]: the EC50 was less than 1 nM.
Under `C[C@H](NC(=O)c1cn(C)c2ccc(-c3ccn4nc(NC(=O)CNCC5CC5)nc4c3)cc12)c1ccc(F)cc1` [Compound 66] stands less than 1 nM; under `CC(C)NCC(=O)Nc1nc2cc(-c3ccc4c(c3)c(C(=O)N[C@@H](C)c3ccc(F)cc3)cn4C)ccn2n1` [Compound 67], less than 1 nM.
In the case of `C[C@H](NC(=O)c1cn(C)c2ccc(-c3ccn4nc(NC(=O)CN5CCN(CCO)CC5)nc4c3)cc12)c1ccc(F)cc1` [Compound 70], the EC50 was less than 1 nM.
Turning to `C[C@H](NC(=O)c1cn(C)c2ccc(-c3ccn4nc(NC(=O)CN5CCOC[C@H]5C)nc4c3)cc12)c1ccc(F)cc1` [Compound 72], the EC50 is less than 1 nM.
Regarding `CCNCC(=O)Nc1nc2cc(-c3ccc4c(c3)c(C(=O)N[C@@H](C)c3ccc(F)cc3)cn4C)ccn2n1` [Compound 76], the EC50 is less than 1 nM.
As for `C[C@H](NC(=O)c1cn(C)c2ccc(-c3ccn4nc(NC(=O)CNC5CCOC5)nc4c3)cc12)c1ccc(F)cc1` (stereo partly shown) [Compound 77], the figure is less than 1 nM; as for `C[C@H](NC(=O)c1cn(C)c2ccc(-c3ccn4nc(NC(=O)CN(C)C)nc4c3)cc12)c1ccc(Cl)cc1` [Compound 78], less than 1 nM.
Under `C[C@H](NC(=O)c1cn(C)c2ccc(-c3ccn4nc(NC(=O)CN5CC6CC5CO6)nc4c3)cc12)c1ccc(Cl)cc1` (stereo partly shown) [Compound 79] stands less than 1 nM; under `C[C@H](NC(=O)c1cn(C)c2ccc(-c3ccn4nc(NC(=O)CN5CC(F)(F)C5)nc4c3)cc12)c1ccc(Cl)cc1` [Compound 80], less than 1 nM; under `C[C@H](NC(=O)c1cn(C)c2ccc(-c3ccn4nc(NC(=O)CN5CCOC[C@H]5C)nc4c3)cc12)c1ccc(Cl)cc1` [Compound 81], less than 1 nM.
As to `C[C@H](NC(=O)c1cn(C)c2ccc(-c3ccn4nc(NC(=O)CN5CCOC[C@@H]5C)nc4c3)cc12)c1ccc(Cl)cc1` [Compound 82], the EC50 was less than 1 nM.
Regarding `C[C@H](NC(=O)c1cn(C)c2ccc(-c3ccn4nc(NC(=O)CN5CCOCC5)nc4c3)cc12)c1ccc(Cl)cc1` [Compound 83], the EC50 is less than 1 nM.
For `CC1CN(CC(=O)Nc2nc3cc(-c4ccc5c(c4)c(C(=O)N[C@@H](C)c4ccc(Cl)cc4)cn5C)ccn3n2)CCO1` (stereo partly shown) [Compound 84], the EC50 is less than 1 nM.
Under `C[C@@H]1CN(CC(=O)Nc2nc3cc(-c4ccc5c(c4)c(C(=O)N[C@@H](C)c4ccc(Cl)cc4)cn5C)ccn3n2)C[C@H](C)O1` [Compound 85] stands less than 1 nM; under `C[C@H](NC(=O)c1cn(C)c2ccc(-c3ccn4nc(NC(=O)CN5CCC(F)(F)CC5)nc4c3)cc12)c1ccc(Cl)cc1` [Compound 86], less than 1 nM.
With `C[C@H](NC(=O)c1cn(C)c2ccc(-c3ccn4nc(NC(=O)CN5CCSCC5)nc4c3)cc12)c1ccc(Cl)cc1` [Compound 87], the EC50 was less than 1 nM.
For `C[C@H](NC(=O)c1cn(C)c2ccc(-c3ccn4nc(NC(=O)CN5CCOCC5)nc4c3)cc12)c1ccco1` [Compound 88], the EC50 was 1 to 10 nM.

What is called EC50 is the concentration needed to bring the measured effect to its halfway point.

The values are drawn from patent publication EP4782448A1, “SUBSTITUTED PYRIDOTRIAZOLE COMPOUND, AND PREPARATION METHOD THEREFOR AND USE THEREOF” (Origiant Pharmaceutical Co., Ltd., priority 2023, dated 2025).
